PubChem BioAssay AID1259407 (Chemical Carcinogenesis Research Information System (CCRIS), 2018)
Calls of active or inactive are those of the source. The rule behind the calls is not given here.

Tested on: CCRIS mutagenicity, Ames/micronucleus/aberration tests
Test: CCRIS mutagenicity studies
[1] = Test System: AMES SALMONELLA TYPHIMURIUM, Strain/Indicator: TA98, Metabolic Activation: NONE, Method: STANDARD PLATE
[2] = Test System: AMES SALMONELLA TYPHIMURIUM, Strain/Indicator: TA98, Metabolic Activation: RAT, LIVER, S-9, AROCLOR 1254, Method: STANDARD PLATE
[3] = Test System: AMES SALMONELLA TYPHIMURIUM, Strain/Indicator: TA100, Metabolic Activation: NONE, Method: STANDARD PLATE
[4] = Test System: AMES SALMONELLA TYPHIMURIUM, Strain/Indicator: TA100, Metabolic Activation: RAT, LIVER, S-9, AROCLOR 1254, Method: STANDARD PLATE
[5] = Test System: AMES SALMONELLA TYPHIMURIUM, Strain/Indicator: TA1535, Metabolic Activation: NONE, Method: STANDARD PLATE
[6] = Test System: AMES SALMONELLA TYPHIMURIUM, Strain/Indicator: TA1535, Metabolic Activation: RAT, LIVER, S-9, AROCLOR 1254, Method: STANDARD PLATE
[7] = Test System: AMES SALMONELLA TYPHIMURIUM, Strain/Indicator: TA1537, Metabolic Activation: NONE, Method: STANDARD PLATE
[8] = Test System: AMES SALMONELLA TYPHIMURIUM, Strain/Indicator: TA1537, Metabolic Activation: RAT, LIVER, S-9, AROCLOR 1254, Method: STANDARD PLATE
[9] = Test System: AMES SALMONELLA TYPHIMURIUM, Strain/Indicator: TA1538, Metabolic Activation: NONE, Method: STANDARD PLATE
[10] = Test System: AMES SALMONELLA TYPHIMURIUM, Strain/Indicator: TA1538, Metabolic Activation: RAT, LIVER, S-9, AROCLOR 1254, Method: STANDARD PLATE

SMILES: [Cl][Sn][Cl]
- mutagenic call (End Point: IN VITRO CHROMOSOMAL ABERRATIONS, Test System: CHO CELLS, Metabolic Activation: RAT, LIVER, S-9, AROCLOR 1254): active; positive; precipitation occurred at all doses
- mutagenic call (End Point: In vivo chromosomal aberrations, Test System: Bone marrow cells (dams), liver cells (fetuses), Species: Mouse, Strain/Sex: Swiss/Female, Route: Oral): active; positive (structural and ploidy changes)
- mutagenic call [1]: inactive; negative
- mutagenic call [2]: inactive; negative
- mutagenic call [3]: inactive; negative
- mutagenic call [4]: inactive; negative
- mutagenic call [5]: inactive; negative
- mutagenic call [6]: inactive; negative
- mutagenic call [7]: inactive; negative
- mutagenic call [8]: inactive; negative
- mutagenic call [9]: inactive; negative
- mutagenic call [10]: inactive; negative
- mutagenic call (Test System: E. COLI, Strain/Indicator: WP2, Metabolic Activation: NONE, Method: STANDARD PLATE): inactive; negative
- mutagenic call (Test System: E. COLI, Strain/Indicator: WP2, Metabolic Activation: RAT, LIVER, S-9, AROCLOR 1254, Method: STANDARD PLATE): inactive; negative
- mutagenic call (Test System: E. COLI, Strain/Indicator: WP2 UVRA, Metabolic Activation: NONE, Method: SPOT TEST): inactive; negative
- mutagenic call (Test System: UDS RAT HEPATOCYTES, Strain/Indicator: THY INCORP, Metabolic Activation: NONE): inactive; negative

SMILES: CCOC(=O)C(Cl)C(C)=O (centres undefined)
- mutagenic call (Test System: AMES SALMONELLA TYPHIMURIUM, Strain/Indicator: TA98, Metabolic Activation: HAMSTER, LIVER, S-9, AROCLOR 1254, Method: STANDARD PLATE): inactive; negative
- mutagenic call [1]: inactive; negative
- mutagenic call [2]: inactive; negative
- mutagenic call (Test System: AMES SALMONELLA TYPHIMURIUM, Strain/Indicator: TA100, Metabolic Activation: HAMSTER, LIVER, S-9, AROCLOR 1254, Method: STANDARD PLATE): inactive; negative
- mutagenic call [3]: inactive; negative
- mutagenic call [4]: inactive; negative
- mutagenic call (Test System: AMES SALMONELLA TYPHIMURIUM, Strain/Indicator: TA1535, Metabolic Activation: HAMSTER, LIVER, S-9, AROCLOR 1254, Method: STANDARD PLATE): inactive; negative
- mutagenic call [5]: inactive; negative
- mutagenic call [6]: inactive; negative
- mutagenic call (Test System: AMES SALMONELLA TYPHIMURIUM, Strain/Indicator: TA1537, Metabolic Activation: HAMSTER, LIVER, S-9, AROCLOR 1254, Method: STANDARD PLATE): inactive; negative
- mutagenic call [7]: inactive; negative
- mutagenic call [8]: inactive; negative
- mutagenic call (Test System: AMES SALMONELLA TYPHIMURIUM, Strain/Indicator: TA1538, Metabolic Activation: HAMSTER, LIVER, S-9, AROCLOR 1254, Method: STANDARD PLATE): inactive; negative
- mutagenic call [9]: inactive; negative
- mutagenic call [10]: inactive; negative
- mutagenic call (Test System: MOUSE LYMPHOMA, Strain/Indicator: L5178Y (TK+/TK-), Metabolic Activation: NONE, Method: SUSPENSION/PLATE): inactive; positive. reevaluation of results: negative
- mutagenic call (Test System: MOUSE LYMPHOMA, Strain/Indicator: L5178Y (TK+/TK-), Metabolic Activation: RAT, LIVER, S-9, AROCLOR 1254, Method: SUSPENSION/PLATE): active; positive. reevaluation of results: inconclusive

SMILES: [N-]=[N+]=CC(=O)NCC(=O)NN
- mutagenic call [5]: active; positive
- mutagenic call (Test System: UDS RODENT CELLS, Strain/Indicator: THY INCORP (NON-S-PHASE), Metabolic Activation: NONE, Method: AUTORADIOGRAPHY): active; positive

SMILES: [Cl][Pt-2]([Cl])([Cl])([Cl])([Cl])[Cl]
- mutagenic call (Test System: AMES SALMONELLA TYPHIMURIUM, Strain/Indicator: TA97A, Metabolic Activation: RAT, LIVER, S-9, PHENOBARBITAL AND 5,6-BENZOFLAVONE, Method: STANDARD PLATE): active; positive
- mutagenic call (Test System: AMES SALMONELLA TYPHIMURIUM, Strain/Indicator: TA97A, Metabolic Activation: RAT, LIVER, S-9, PHENOBARBITAL AND BETA-NAPHTHOFLAVONE, Method: STANDARD PLATE): active; positive
- mutagenic call (Test System: AMES SALMONELLA TYPHIMURIUM, Strain/Indicator: TA98, Metabolic Activation: NONE, Method: PREINCUBATION): inactive; negative
- mutagenic call [1]: active; positive
- mutagenic call (Test System: AMES SALMONELLA TYPHIMURIUM, Strain/Indicator: TA98, Metabolic Activation: RAT, LIVER, S-9, AROCLOR 1254, Method: PREINCUBATION): active; positive
- mutagenic call (Test System: AMES SALMONELLA TYPHIMURIUM, Strain/Indicator: TA98, Metabolic Activation: RAT, LIVER, S-9, PHENOBARBITAL AND 5,6-BENZOFLAVONE, Method: STANDARD PLATE): active; positive
- mutagenic call (Test System: AMES SALMONELLA TYPHIMURIUM, Strain/Indicator: TA98, Metabolic Activation: RAT, LIVER, S-9, PHENOBARBITAL AND BETA-NAPHTHOFLAVONE, Method: STANDARD PLATE): active; positive
- mutagenic call (Test System: AMES SALMONELLA TYPHIMURIUM, Strain/Indicator: TA100, Metabolic Activation: NONE, Method: PREINCUBATION): inactive; negative
- mutagenic call [3]: active; positive
- mutagenic call (Test System: AMES SALMONELLA TYPHIMURIUM, Strain/Indicator: TA100, Metabolic Activation: RAT, LIVER, S-9, AROCLOR 1254, Method: PREINCUBATION): inactive; negative
- mutagenic call (Test System: AMES SALMONELLA TYPHIMURIUM, Strain/Indicator: TA100, Metabolic Activation: RAT, LIVER, S-9, PHENOBARBITAL AND 5,6-BENZOFLAVONE, Method: STANDARD PLATE): active; positive
- mutagenic call (Test System: AMES SALMONELLA TYPHIMURIUM, Strain/Indicator: TA100, Metabolic Activation: RAT, LIVER, S-9, PHENOBARBITAL AND BETA-NAPHTHOFLAVONE, Method: STANDARD PLATE): active; positive
- mutagenic call (Test System: AMES SALMONELLA TYPHIMURIUM, Strain/Indicator: TA102, Metabolic Activation: NONE, Method: STANDARD PLATE): active; positive
- mutagenic call (Test System: AMES SALMONELLA TYPHIMURIUM, Strain/Indicator: TA102, Metabolic Activation: RAT, LIVER, S-9, PHENOBARBITAL AND 5,6-BENZOFLAVONE, Method: STANDARD PLATE): active; positive
- mutagenic call (Test System: AMES SALMONELLA TYPHIMURIUM, Strain/Indicator: TA102, Metabolic Activation: RAT, LIVER, S-9, PHENOBARBITAL AND BETA-NAPHTHOFLAVONE, Method: STANDARD PLATE): active; positive

SMILES: O=[N+]([O-])c1ccc2nscc2c1
- mutagenic call [1]: active; positive
- mutagenic call (Test System: AMES SALMONELLA TYPHIMURIUM, Strain/Indicator: TA98, Metabolic Activation: S-9, Method: STANDARD PLATE): active; positive
- mutagenic call [3]: active; positive
- mutagenic call (Test System: AMES SALMONELLA TYPHIMURIUM, Strain/Indicator: TA100, Metabolic Activation: S-9, Method: STANDARD PLATE): active; positive
- mutagenic call [5]: active; positive
- mutagenic call (Test System: AMES SALMONELLA TYPHIMURIUM, Strain/Indicator: TA1535, Metabolic Activation: S-9, Method: STANDARD PLATE): active; positive
- mutagenic call [7]: active; positive
- mutagenic call (Test System: AMES SALMONELLA TYPHIMURIUM, Strain/Indicator: TA1537, Metabolic Activation: S-9, Method: STANDARD PLATE): active; positive

SMILES: CC[C@@H](C)[C@@H](N)C(=O)OC
- mutagenic call (End Point: IN VIVO MICRONUCLEUS, Test System: BONE MARROW POLYCHROMATIC ERYTHROCYTES, Species: MOUSE, Strain/Sex: DDY/MALE, Route: IP): inactive; negative
